Assay results reported in PubChem BioAssay AID1645868 (Buhrlage Lab, Dana-Farber Cancer Institute and Novartis …, 2021).
pIC50: −log10 of the molar value. Calls of active or inactive are those of the source.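 How the source made its calls: active means maximal percent inhibition of the deubiquitinase OTUD3 of at least 30% across the tested doses; inactive means the rest.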

Target: OTU domain-containing protein 3 (Homo sapiens) (UniProt Q5T2D3)
Assay: Validation of screening hits, potency titration, in vitro enzymatic, OTU domain-containing protein 3 DUB inhibitors (AID 1645868)
Details: purified OTUD3, ubiquitin-rhodamine cleavage fluorescence, 2 h

Sequence of OTU domain-containing protein 3 (Homo sapiens) (Q5T2D3 whole entry, looked up, the tested form may be a part): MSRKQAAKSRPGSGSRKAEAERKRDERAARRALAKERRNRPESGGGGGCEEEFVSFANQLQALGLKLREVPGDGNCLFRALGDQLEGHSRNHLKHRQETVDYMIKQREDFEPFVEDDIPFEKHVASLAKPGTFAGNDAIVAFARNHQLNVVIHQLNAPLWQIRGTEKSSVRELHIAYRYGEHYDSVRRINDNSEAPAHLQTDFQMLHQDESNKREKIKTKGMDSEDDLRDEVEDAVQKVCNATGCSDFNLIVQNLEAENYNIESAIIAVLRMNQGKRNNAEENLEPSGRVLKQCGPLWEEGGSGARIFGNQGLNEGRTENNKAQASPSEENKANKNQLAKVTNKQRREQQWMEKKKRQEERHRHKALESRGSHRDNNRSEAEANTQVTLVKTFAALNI

| SMILES | IC50 | pIC50 |
| --- | --- | --- |
| CC12c3ccc4c(c3C(=O)c3occ(c31)C(=O)CC2O)CCC4=O (stereo not drawn) | > 50 µM (inactive) | – |
| COc1cccc(NC(=O)C2Cc3ccccc3N2C(=O)c2ccccc2)c1 (stereo not drawn) | – | 4.70 |
| COc1cc(C#N)c(NC(=NCc2ccc(F)cc2)SC)cc1OC | – | 4.31 |
| CC(=O)N1CCc2cc(S(=O)(=O)NCCC(=O)Nc3cccc(C)c3C)ccc21 | – | 4.63 |
| Cc1cc(C(=O)CSc2nc3ccccc3[nH]2)c(C)n1Cc1ccco1 | > 50 µM (inactive) | – |
| COc1ccc(-c2cc3c(=O)n(CC(=O)NCCCN4CCCC4)ncn3n2)cc1 | > 50 µM (inactive) | – |
| COc1ccc(NC(=O)C2[C@@H]3C(=O)N(C4CCCCC4)C(=O)[C@@H]3[C@H]3c4ccccc4C=CN23)cc1 (stereo partly drawn) | > 50 µM (inactive) | – |
| O=C(NCc1ccccc1)c1ccc2c(=O)n(-c3ccccc3)c(=O)[nH]c2c1 | – | 4.42 |
| Cc1ccc(C(=O)Nc2cc3c4c(c2)CC(=O)N4CCC3)cc1C | > 50 µM (inactive) | – |
| CC1CCCCN1CCCNC(=O)c1ccc(N2CCc3ccccc32)s1 (stereo not drawn) | > 50 µM (inactive) | – |
| COc1ccc(OC)c2c(C)cc(N3CCN(S(=O)(=O)c4ccc5c(c4)CCCN5S(C)(=O)=O)CC3)nc12 | – | 4.68 |
| Cc1ccc(C(=O)Nc2nc3n(n2)C(c2ccccc2)CC(=O)N3)cc1 (stereo not drawn) | – | 4.54 |
| CCN1C(=O)COc2ccc(NC(=O)c3ccc(OCc4nonc4C)cc3)cc21 | > 50 µM (inactive) | – |
| COc1cc2c(cc1OC)-c1cc(NCc3cc(OC)c(OC)c(OC)c3)nc(=O)n1CC2 | > 50 µM (inactive) | – |
| COc1ccc(NC2c3ccccc3C(=O)N2c2ccccn2)cc1 (stereo not drawn) | > 50 µM (inactive) | – |
| O=C(COC(=O)c1cc(Cl)c2c(c1)OCO2)Nc1ccc2[nH]c(=O)[nH]c2c1 | > 50 µM (inactive) | – |
| COc1ccc(-c2ccnc(-c3ccc(OCc4cccc(F)c4)cc3)n2)cc1 | – | 4.34 |
| c1ccc2c(c1)CCc1c-2nc2ccccc2c1N1CCOCC1 | > 50 µM (inactive) | – |
| CC1CCN(S(=O)(=O)c2ccc3[nH]cc(C(=O)NCc4ccco4)c(=O)c3c2)CC1 | > 50 µM (inactive) | – |
| CCCC(=O)Nc1nc2ccc(CCC(=O)NCc3ccc(F)cc3)cc2s1 | – | 4.45 |
| CC(=O)c1ccc(NC(=O)c2nc3ccccc3nc2N2CCOCC2)cc1 | > 50 µM (inactive) | – |
| COCCCNC(=O)c1ccc(Cn2c(=O)c3ccccc3n(CC(=O)Nc3ccc(OC)cc3)c2=O)cc1 | – | 4.55 |
| O=C(O)c1ccccc1C(=O)Nc1ccc(SC(C(=O)Nc2cccc(Cl)c2)c2ccccc2)cc1 (stereo not drawn) | – | 4.47 |
| O=C(COc1ccc2c(c1)CCC2)Nc1ccc2c(c1)CCC2 | > 50 µM (inactive) | – |

| SMILES | IC50 | pIC50 |
| --- | --- | --- |
| CCOc1ccc(NC(=O)c2cc(-c3ccccc3)c(N3CCOCC3)s2)cc1 | – | 4.57 |
| Cc1ccc(NCc2cc3c(C(C)(C)C)nn(-c4ccc(Cl)cc4)c3[nH]c2=O)cc1 | – | 4.47 |
| COc1ccc(OC)c(C2CC(=O)Nc3n[nH]c(-c4ccccc4)c32)c1 (stereo not drawn) | – | 4.42 |
| COc1ccc(C(=O)Nc2ccc(S(=O)(=O)N3CCCCC3)cc2)cc1 | > 50 µM (inactive) | – |
| O=C(Oc1ccc(-c2cnc3ccccc3n2)cc1)c1ccc(F)cc1 | > 50 µM (inactive) | – |
| Cc1c(-c2ccccc2)oc2c(C(=O)OCC(=O)Nc3ccccc3F)cccc2c1=O | > 50 µM (inactive) | – |
| COc1cc(NC(=O)Cn2nc(-c3ccc(F)cc3)ccc2=O)ccc1-n1cnnn1 | – | 5.25 |
| CC[C@H](C)C[C@H]1CC[C@](O)([C@](C)(O)C(=O)N[C@@H]2C(=O)N3NCCC[C@@H]3C(=O)N(O)[C@@H](C)C(=O)NCC(=O)N3NCCC[C@H]3C(=O)N(O)[C@H](C)C(=O)O[C@H]2C(C)C)O[C@@H]1C | – | 5.66 |
| O=C(O)Cc1ccc(Nc2nc3ccccc3n3nnnc23)cc1 | > 50 µM (inactive) | – |
| CCOc1ccccc1-c1nc(-c2nnn(Cc3ccccc3)c2C)no1 | > 50 µM (inactive) | – |
| O=S(=O)(Nc1ccc(O)cc1)c1ccc2oc3ccc(S(=O)(=O)Nc4ccc(O)cc4)cc3c2c1 | – | 4.34 |
| CC(C)OC(=O)c1cc2c(ccn2C)n1CC(=O)N1CCN(C(=O)c2ccco2)CC1 | > 50 µM (inactive) | – |
| O=C(CNC(=O)OCc1ccccc1)Nc1ccc(Br)cc1C(=O)c1ccccc1Cl | – | 4.87 |
| CCCCNc1nc2c(-c3ccccc3)nnn2c2ccccc12 | > 50 µM (inactive) | – |
| CCC(C)Oc1cccc(C(=O)Nc2ccc(CN3CCOCC3)cc2)c1 (stereo not drawn) | > 50 µM (inactive) | – |
| Cc1cn[nH]c1C1COCCN1C(=O)c1ccc2ncccc2c1 (stereo not drawn) | > 50 µM (inactive) | – |
| Cc1c(C)n(-c2ccccc2)c2ncn(CC(=O)NC(C)c3ccccc3)c(=O)c12 (stereo not drawn) | – | 4.68 |
| Cc1nnc(NC(=O)C2CCN(c3ccc(S(N)(=O)=O)cc3[N+](=O)[O-])CC2)o1 | – | 4.81 |
| O=C(Nc1nnc(C2CC2)s1)c1ccc(OCC2CCCO2)cc1 (stereo not drawn) | > 50 µM (inactive) | – |
| N#Cc1ccccc1Cn1c(=O)n(CCCCC(=O)NCCc2ccccc2)c(=O)c2ccccc21 | – | 4.63 |
| CC(OC(=O)c1cn(-c2ccccc2)nc1-c1cccnc1)C(=O)Nc1cccc(S(=O)(=O)N(C)C)c1 (stereo not drawn) | > 50 µM (inactive) | – |
| COc1ccccc1-c1nc2c3c(ncn2n1)Oc1c(c(C)nn1-c1ccccc1)C3c1cccnc1 (stereo not drawn) | > 50 µM (inactive) | – |
| O=C(CCc1nnc2n(Cc3ccccc3Cl)c(=O)c3ccccc3n12)NCc1ccccn1 | > 50 µM (inactive) | – |
| Cc1cccc(CNC(=O)C2CCCN(S(=O)(=O)Cc3ccc(F)cc3)C2)c1 (stereo not drawn) | – | 4.38 |

| SMILES | IC50 | pIC50 |
| --- | --- | --- |
| Fc1ccc(Cn2ccc(-c3cnc(-c4ccccc4)s3)n2)cc1 | > 50 µM (inactive) | – |
| Fc1ccc(Nc2nc(Nc3cccc(F)c3)nc3nccnc23)cc1 | > 50 µM (inactive) | – |
| Cn1ccc2c(cc(C(=O)NCCC3=CCCCC3)n2C)c1=O | > 50 µM (inactive) | – |
| CCOC(=O)c1ccc(NC(=O)COc2cccc3c2CCN(CC)C3=O)cc1 | > 50 µM (inactive) | – |
| C[C@H](NC(=O)Cc1ccccc1F)c1nc2cc(-c3ccccc3F)ncn2n1 | > 50 µM (inactive) | – |
| COc1ccccc1-c1nc(-c2nnn(Cc3ccc(C)cc3)c2C)no1 | > 50 µM (inactive) | – |
| Cc1ccccc1C(=O)NCCn1cc(SCC(=O)Nc2ccc3c(c2)OCCO3)c2ccccc21 | > 50 µM (inactive) | – |
| Cc1ccccc1NC(=O)c1ccn(COc2ccc(Cl)cc2)n1 | > 50 µM (inactive) | – |
| O=C(NCc1ccccc1)Nc1cccc2ccccc12 | – | 4.40 |
| CCN(CCCNC(=O)c1ccc(Cn2c(=O)[nH]c3ccccc3c2=O)cc1)c1ccccc1 | – | 4.76 |
| Cn1c(=O)/c(=C/c2ccccc2)[nH]c(=O)/c1=C/c1ccccc1 | – | 4.65 |
| O=C(CCc1ccc(S(=O)(=O)N2CCOCC2)cc1)Nc1ccc2c(c1)OCCO2 | > 50 µM (inactive) | – |
| Cc1cc(N2CCOCC2)nc2ccc(NC(=O)CCC(=O)Nc3ccc(F)cc3)cc12 | > 50 µM (inactive) | – |
| Cc1ccc(C(=O)Nc2c(C(=O)N3CCN(c4ccccc4)CC3)[nH]c3ccccc23)cc1 | > 50 µM (inactive) | – |
| COc1ccc(-c2cc(C(F)F)n3ncc(C(=O)Nc4ccc5c(c4)OCCO5)c3n2)cc1 | > 50 µM (inactive) | – |
| O=C(CSc1nncc2ccccc12)Nc1ccc2c(c1)OCO2 | > 50 µM (inactive) | – |
| CC1CCCN(S(=O)(=O)c2cc3cc(F)ccc3oc2=O)C1 (stereo not drawn) | > 50 µM (inactive) | – |
| Cc1sc2ncnc(OCc3ccc(F)cc3Cl)c2c1C | > 50 µM (inactive) | – |
| Cn1c(=O)sc2cc(NC(=O)c3ccc(Br)cc3)ccc21 | – | 4.82 |
| O=C(c1ccsc1)N1CCC2(C1)Nc1cccnc1NC2=NC1CCCC1 (stereo not drawn) | > 50 µM (inactive) | – |
| O=C(Nc1ccccc1)C1CCCN(C(=O)c2cc3ccccc3[nH]2)C1 (stereo not drawn) | – | 4.36 |
| Cc1ccccc1OCCC(=O)Nc1cccc(S(=O)(=O)Nc2ccccc2Cl)c1 | > 50 µM (inactive) | – |
| Cc1cccc(NC(=O)CN2C(=O)CC(c3ccccc3)S(=O)(=O)c3ccccc32)c1C (stereo not drawn) | – | 4.66 |
| O=C(CCn1c(=O)c2ccccc2n(Cc2cc(=O)n3ccccc3n2)c1=O)NCCc1ccc(Cl)cc1 | – | 4.51 |

| SMILES | IC50 | pIC50 |
| --- | --- | --- |
| COc1cccc(NC(=O)C2CCC(CNS(=O)(=O)c3ccc4c(c3)C(C)(C)C(=O)N4C)CC2)c1 (stereo not drawn) | > 50 µM (inactive) | – |
| Cc1[nH]nc(NC(=O)C2COc3ccccc3O2)c1-c1ccccc1 (stereo not drawn) | – | 4.58 |
| COc1cc(/C=C/C(=O)OCC(=O)Nc2ccc([N+](=O)[O-])cc2OC)ccc1O | – | 4.61 |
| COc1cnc(-c2ccccn2)nc1Sc1ccc(C)cc1 | > 50 µM (inactive) | – |
| COc1ccc2nc(NC(=O)C(CC(C)C)NS(=O)(=O)c3ccc4c(c3)CCN4C(C)=O)sc2c1 (stereo not drawn) | – | 4.58 |
| Cc1cc(C(=O)Nc2ccc3nc(N4CCN(c5ncccn5)CC4)cc(C)c3c2)ccc1[N+](=O)[O-] | > 50 µM (inactive) | – |
| COc1cccc(CNC(=O)c2ccc3c(c2)NC(=O)C2CCCN32)c1OC (stereo not drawn) | > 50 µM (inactive) | – |
| O=C(COc1ccc(Cl)cc1Cl)Nc1ccccc1-c1nc2ccccc2[nH]1 | – | 5.21 |
| O=C(NCc1cccnc1)C1CCN(c2cnc(N3CCCCCC3)nc2)CC1 | > 50 µM (inactive) | – |
| COc1ccc(-n2ccc(=O)c(-c3nc(-c4ccccc4F)no3)n2)cc1OC | > 50 µM (inactive) | – |
| COc1ccccc1CNC(=O)c1c(O)c2cnn(-c3cccc(C)c3)c2[nH]c1=O | > 50 µM (inactive) | – |
| Cc1ccc(C(=O)N2CCCC3(C2)Nc2cccnc2NC3=NC2CCCC2)s1 (stereo not drawn) | > 50 µM (inactive) | – |
| CN1CCN(c2ncnc3c2oc2ccc(Cl)cc23)CC1 | > 50 µM (inactive) | – |
| O=C(COc1nc2ccccc2nc1N1CCOCC1)NC(c1ccccc1)c1ccccc1 | > 50 µM (inactive) | – |
| CN(C)S(=O)(=O)c1ccc(C(=O)Nc2c(C#N)oc3ccccc23)cc1 | > 50 µM (inactive) | – |
| Cc1cccc(-c2nc3n(CC(=O)Nc4ccc(Cl)cc4)c(C)cc(=O)n3n2)c1 | – | 5.70 |
| NS(=O)(=O)c1cc(C(=O)OCC(=O)NC2CCCc3ccccc32)ccc1Cl (stereo not drawn) | – | 4.31 |
| O=C(NCc1ccc(F)cc1)C1CCN(c2cnc(N3CCCCC3)nc2)CC1 | > 50 µM (inactive) | – |
| Cc1nc(Nc2c3ccccc3nc3ccccc23)sc1C | > 50 µM (inactive) | – |
| COc1cccc(NC(=O)c2nnn(-c3ccccc3)n2)c1 | > 50 µM (inactive) | – |
| O=C(Nc1cc(F)c2nc(N3CCOCC3)ccc2c1)C1CC1 | > 50 µM (inactive) | – |
